Legend:
ALDH2 = target: T1, ALDH2 (Homo sapiens, UniProt P05091); assay: Purified ALDH2 assay with propanal, NADH fluorescence; assay type: biochemical; details: purified enzyme
T1 construct: histidine-tag (N); made in house; host or cells: bacterial expression (pETite vector, IPTG induction)
T1 sequence (P05091 18-517): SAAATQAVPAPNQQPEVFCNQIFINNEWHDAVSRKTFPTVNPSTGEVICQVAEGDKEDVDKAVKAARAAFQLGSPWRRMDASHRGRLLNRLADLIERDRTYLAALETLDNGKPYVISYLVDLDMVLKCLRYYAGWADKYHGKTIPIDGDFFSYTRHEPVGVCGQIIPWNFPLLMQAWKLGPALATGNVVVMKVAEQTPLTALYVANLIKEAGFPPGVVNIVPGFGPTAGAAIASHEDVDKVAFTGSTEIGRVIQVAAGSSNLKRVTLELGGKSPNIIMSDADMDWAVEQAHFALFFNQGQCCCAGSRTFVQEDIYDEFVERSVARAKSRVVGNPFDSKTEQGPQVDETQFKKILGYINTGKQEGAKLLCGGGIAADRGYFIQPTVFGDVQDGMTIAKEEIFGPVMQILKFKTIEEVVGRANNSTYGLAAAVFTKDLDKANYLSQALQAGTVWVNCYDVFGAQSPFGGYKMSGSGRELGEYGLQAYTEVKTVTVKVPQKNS
Excerpt: ALDHs were cloned into bacterial expression vector for in vitro enzyme assays and into mammalian expression vectors for cell-based enzyme assays. Human ALDH1A1 cDNA and human ALDH2 cDNA were purchased from OriGene (SC321535) and Open Biosystems (MHS4771-99611182), respectively. and human ALDH1A2 cDNA was cloned from human testis RNA using RT-PCR (Population Division of the Department of Economic and Social Affairs of the United Nations Secretariat. World Population prospects: the 2008 revision. Available at http://www.un.org/esa/population/ (Retrieved Sep. 30, 2011)). For bacterial expression, an open reading frame of ALDH1A1 and ALDH2 were subcloned into the pETite vector (Lucigen) with a 5′ histidine-tag and that of ALDH1A2 into a pET28 vector (Novagen) with a 3′ histidine-tag. Correct frame and sequences were verified through DNA sequencing (UW DNA sequencing facility). ALDHs were induced with 1 mM IPTG and purified using His.Bind resin (Novagen, San Diego, Calif.) and stored in a buffer containing 20 mM Hepes (pH 8), 150 mM KCl and 1 mM EDTA as previously described (Fierce, Y., de Morais Vieira, M., Piantedosi, R., Wyss, A., Blaner, W. S., and Paik, J. (2008) In vitro and in vivo characterization of retinoid synthesis from beta-carotene. Archives of biochemistry and biophysics 472, 126-138). […]
For this, 2 μg purified ALDH2, 20 μM propanal and varying concentrations of inhibitors were incubated at room temperature. Enzyme activity was determined by measuring fluorescence of NADH (Ex, 350 nm/Em, 460 nm) using a Victor3 plate reader (PerkinElmer), and initial velocity was calculated from two consecutive readings over 1 minute.

ALDH1A2 = target: T2, ALDH1A2 (Homo sapiens, UniProt O94788); assay: Inhibitor screening using purified enzymes: ALDH1A2 activity, retinoic acid production by HPLC (5 uM initial screen, then IC50); assay type: biochemical; design: histidine-tag (C); made in house; host or cells: bacterial expression (pET28 vector, IPTG induction); details: purified enzyme
T2 sequence (O94788 1-518): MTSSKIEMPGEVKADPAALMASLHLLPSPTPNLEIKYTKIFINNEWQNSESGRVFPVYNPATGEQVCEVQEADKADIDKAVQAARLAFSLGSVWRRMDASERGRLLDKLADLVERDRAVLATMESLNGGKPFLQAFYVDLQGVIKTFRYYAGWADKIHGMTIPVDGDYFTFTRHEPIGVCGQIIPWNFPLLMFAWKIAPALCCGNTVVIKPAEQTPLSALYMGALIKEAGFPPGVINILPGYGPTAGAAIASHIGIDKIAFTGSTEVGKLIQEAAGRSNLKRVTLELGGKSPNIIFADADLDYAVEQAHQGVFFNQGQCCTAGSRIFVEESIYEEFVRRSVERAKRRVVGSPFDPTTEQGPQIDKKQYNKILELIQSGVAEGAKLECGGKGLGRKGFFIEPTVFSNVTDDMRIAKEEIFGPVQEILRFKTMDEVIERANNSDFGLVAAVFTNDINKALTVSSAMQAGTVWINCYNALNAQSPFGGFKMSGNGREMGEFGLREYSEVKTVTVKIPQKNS
Excerpt: ALDHs were cloned into bacterial expression vector for in vitro enzyme assays and into mammalian expression vectors for cell-based enzyme assays. Human ALDH1A1 cDNA and human ALDH2 cDNA were purchased from OriGene (SC321535) and Open Biosystems (MHS4771-99611182), respectively. and human ALDH1A2 cDNA was cloned from human testis RNA using RT-PCR (Population Division of the Department of Economic and Social Affairs of the United Nations Secretariat. World Population prospects: the 2008 revision. Available at http://www.un.org/esa/population/ (Retrieved Sep. 30, 2011)). For bacterial expression, an open reading frame of ALDH1A1 and ALDH2 were subcloned into the pETite vector (Lucigen) with a 5′ histidine-tag and that of ALDH1A2 into a pET28 vector (Novagen) with a 3′ histidine-tag. Correct frame and sequences were verified through DNA sequencing (UW DNA sequencing facility). ALDHs were induced with 1 mM IPTG and purified using His.Bind resin (Novagen, San Diego, Calif.) and stored in a buffer containing 20 mM Hepes (pH 8), 150 mM KCl and 1 mM EDTA as previously described (Fierce, Y., de Morais Vieira, M., Piantedosi, R., Wyss, A., Blaner, W. S., and Paik, J. (2008) In vitro and in vivo characterization of retinoid synthesis from beta-carotene. Archives of biochemistry and biophysics 472, 126-138).
ALDH1A1 and ALDH1A2 activity was determined as previously reported (Beedle M T, Stevison F, Zhong G, Topping T, Hogarth C, Isoherranen N, Griswold M D. Sources of All-Trans Retinal Oxidation Independent of the Aldehyde Dehydrogenase 1A Isozymes Exist in the Postnatal Testis. Biol Reprod. 2018 Sep. 21. doi: 10.1093/biolre/ioy200). Briefly, purified enzymes were incubated in a buffer containing 10 mM HEPES buffer (pH 8.0), 150 mM potassium chloride and 2 mM EDTA with 2 mM NAD. Retinoic acid production was determined using HPLC as previously reported (Amory J K, Muller C H, Shimshoni A J, Isoherranen N, Paik J, Moreb J S, Amory D W, Evanoff R, Goldstein A S, Griswold M D. Suppression of spermatogenesis by bisdichloroacetyldiamines is mediated by inhibition of testicular retinoic acid biosynthesis. Journal of Andrology 2011; 32(1):111-119). Inhibitors were diluted in DMSO and added to the reactions. […] For initial screening of inhibitors for ALDH1A2, 1 μg ALDH1A2, 5 μM all-trans-retinal and 5 μM inhibitors were incubated for 15 min at 37° C. […] For this purpose, 0.5 μg ALDH1A2 and […] were incubated for 5 minutes at 37° C. with varying concentrations of inhibitors. To determine specificity toward ALDH1A2, the IC50 for […]

| Compound | IC50 (ALDH2) [µM] | IC50 (ALDH1A2) [µM] |
| --- | --- | --- |
| COC(=O)c1ccc(-c2nn(-c3ccccc3)cc2C=O)cc1 [Cmpd 33] | 0.077 | 0.198 |
| COc1cccc(NC(=O)c2cn(-c3ccccc3)nc2-c2ccc([N+](=O)[O-])cc2)c1 [Compound 103, N-(3-Methoxyphenyl)-3-(4-nitrophenyl)-1-phenyl-1H-pyrazole-4-carboxamide] | 313 | 0.62 |
| O=C(Nc1cccc(F)c1)c1cn(-c2ccccc2)nc1-c1ccc([N+](=O)[O-])cc1 [Compound 106, N-(3-fluorophenyl)-3-(4-nitrophenyl)-1-phenyl-1H-pyrazole-4-carboxamide] | 146 | 0.07 |
| O=C(Nc1ccccc1C(F)(F)F)c1cn(-c2ccccc2)nc1-c1ccc([N+](=O)[O-])cc1 [Compound 150, 3-(4-Nitrophenyl)-1-phenyl-N-[2-(trifluoromethyl)phenyl]-1H-pyrazole-4-carboxamide] | 13 | 0.17 |
| O=C(Nc1cccc(C(F)(F)F)c1)c1cn(-c2ccccc2)nc1-c1ccc([N+](=O)[O-])cc1 [Compound 151, 3-(4-Nitrophenyl)-1-phenyl-N-[3-(trifluoromethyl)phenyl]-1H-pyrazole-4-carboxamide] | 24.6 | 0.822 |
| O=C(Nc1ccccc1O)c1cn(-c2ccccc2)nc1-c1ccc([N+](=O)[O-])cc1 [Compound 165, N-(2-Hydroxyphenyl)-3-(4-nitrophenyl)-1-phenyl-1H-pyrazole-4-carboxamide] | 23.3 | 0.211 |
| O=C(Nc1cccc(O)c1)c1cn(-c2ccccc2)nc1-c1ccc([N+](=O)[O-])cc1 [Compound 166, N-(3-Hydroxyphenyl)-3-(4-nitrophenyl)-1-phenyl-1H-pyrazole-4-carboxamide] | 95.2 | 0.779 |
| O=C(Nc1ccc(O)cc1)c1cn(-c2ccccc2)nc1-c1ccc([N+](=O)[O-])cc1 [Compound 167, N-(4-Hydroxyphenyl)-3-(4-nitrophenyl)-1-phenyl-1H-pyrazole-4-carboxamide] | 16.9 | 0.397 |
| Nc1cccc(NC(=O)c2cn(-c3ccccc3)nc2-c2ccc([N+](=O)[O-])cc2)c1 [Compound 173, N-(3-Aminophenyl)-3-(4-nitrophenyl)-1-phenyl-1H-pyrazole-4-carboxamide] | 73.7 | 0.383 |
| CS(=O)(=O)c1ccc(-c2nn(-c3ccccc3)cc2C(=O)Nc2ccc(F)c(F)c2)cc1 [Compound 207, 3-(4-(Methylsulfonyl)phenyl)-N-(3,4-difluorophenyl)-1-phenyl-1H-pyrazole-4-carboxamide] | 10.3 | 0.01 |
| CS(=O)(=O)c1ccc(-c2nn(-c3ccccc3)cc2C(=O)Nc2cccc(C(F)(F)F)c2)cc1 [Compound 208, 3-(4-(Methylsulfonyl)phenyl)-N-(3-trifluoromethylphenyl)-1-phenyl-1H-pyrazole-4-carboxamide] | 145 | 0.01 |
| CC(=O)Oc1ccccc1NC(=O)c1cn(-c2ccccc2)nc1-c1ccc(S(C)(=O)=O)cc1 [Compound 210, N-(2-Acetoxyphenyl)-3-[4-(methylsulfonyl)phenyl]-1-phenyl-1H-pyrazole-4-carboxamide] | 112 | 0.032 |
| COC(=O)c1cn(-c2ccccc2)nc1-c1ccc([N+](=O)[O-])cc1 [Compound 229, Methyl 3-(4-nitrophenyl)-1-phenyl-1H-pyrazole-4-carboxylate] | 15.2 | 0.217 |
| CS(=O)(=O)c1ccc(-c2nn(-c3ccccc3F)cc2C(=O)Nc2ccccc2O)cc1 [Compound 238, N-(2-Hydroxphenyl)-3-[4-(methylsulfonyl)phenyl]-1-(2-fluoropheny)-1H-pyrazole-4-carboxamide] | 40.9 | – |
| CS(=O)(=O)c1ccc(-c2nn(-c3cccc(Cl)c3)cc2C(=O)Nc2cccc(F)c2)cc1 [Compound 239, N-(3-Fluorophenyl)-3-[4-(methylsulfonyl)phenyl]-1-(3-chloropheny)-1H-pyrazole-4-carboxamide] | 9.6 | 0.271 |
| CS(=O)(=O)c1ccc(-c2nn(-c3cccc(F)c3)cc2C(=O)Nc2ccccc2O)cc1 [Compound 243, N-(2-Hydroxyphenyl)-3-[4-(methylsulfonyl)phenyl]-1-(3-fluorophenyl)-1H-pyrazole-4-carboxamide] | 62 | 0.076 |
| CS(=O)(=O)c1ccc(-c2nn(-c3cccc(F)c3)cc2C(=O)Nc2ccc(OC(F)(F)F)cc2)cc1 [Compound 246, N-(4-Trifluoromethoxyphenyl)-3-[4-(methylsulfonyl)phenyl]-1-(3-fluorophenyl)-1H-pyrazole-4-carboxamide] | 61.2 | 0.119 |
| CS(=O)(=O)c1ccc(-c2nn(-c3cccc(F)c3)cc2C(=O)Nc2ccc(C#N)cc2)cc1 [Compound 249, N-(4-Cyanophenyl)-3-[4-(methylsulfonyl)phenyl]-1-(3-fluorophenyl)-1H-pyrazole-4-carboxamide] | 35.9 | 0.038 |
| CS(=O)(=O)c1ccc(-c2nn(-c3cccc(F)c3)cc2C(=O)Nc2cccc(C(F)(F)F)c2)cc1 [Compound 250, N-(3-Trifluoromethyphenyl)-3-[4-(methylsulfonyl)phenyl]-1-(3-fluorophenyl)-1H-pyrazole-4-carboxamide] | 85.8 | 0.291 |

From patent US11548875B2, “Inhibitor compounds for male contraception” (University of Washington, priority 2018, dated 2023)
